Test results reported in patent US20140199380A1, “PHARMACEUTICAL COMPOSITION COMPRISING AN ALGAE ADAPTED TO INCREASE THE EFFICACY OF AN ENZYMATIC INHIBITOR” (priority 2010, published 2014).

Legend:
[1] = tadalafil as normally administered, typical value; cited from earlier work
[2] = Plasma concentration of Tadalafil after a single dose (pharmacokinetics, FIG. 1); details: male, human, in vivo, 20 mg
Experimental: In both cases, a single dose of a pharmaceutical composition equivalent to 20 mg of tadalafil was administered to a test population of otherwise healthy subjects suffering from ED and the plasma concentration of Tadalafil was measured at intervals following the administration.

CN1CC(=O)N2[C@H](c3ccc4c(c3)OCO4)c3[nH]c4ccccc4c3C[C@@H]2C1=O [Tadalafil, (6R,12aR)-6-(1,3-benzodioxol-5-yl)-2,3,6,7,12,12a-hexahydro-2-methylpyrazino[1′,2′:1,6]pyrido[3,4-b]indole-1,4-dione]
Half-life in the body [1]: 17.5 h | half-life [2]: 17.5 h
